Measured values: EP2880993A1, “Method of achieving memory and learning improvement by the administration of sialic acid” (ABBOTT LABORATORIES, priority 2013, dated 2015)
Entries after “also recorded” stand apart in the source; their conditions may differ.

How the values were obtained:
[1] = tested on: hippocampal CA3-CAl areas; test: Long-term potentiation (LTP) testing in vivo, Example 2; parameters: species or system Sprague-Dawley rat; details: 11 months old; after the second day, followed for up to 4 days; FIG. 4
Method: In order to establish the role of sialylated oligosaccharides in cognition, rat pups were supplemented with 6'-sialyllactose (6'-SL) from postnatal day 3 (PND3) and their learning and memory abilities were analyzed later in life. Rat performance in a classical spatial cognitive task (Y-maze), Novel object Recognition, protocol of spatial learning in the novel Intellicage® system, and Morris water maze were carried out once the animals reached 12 and 14 months of age. LTP response in hippocampus was also evaluated in vivo once the animals reached 11 months of age. The Y-maze, Object Recognition and the IntelliCage® allow the determination of spatial orientation and memory capabilities of experimental animals. The same female rats performed all the tests.
The pups from the second cohort were divided into three groups and given the following designations: the 6'-SL supplemented group, the NeuAc supplemented group and the control group. Initially, each group comprised 20 male pups. Due to premature deaths there were a total of 14 pups in the 6'-SL supplemented group at the end of the lactation. The 6'-SL supplemented group received 6'-SL supplementation (8 doses/day) in order to reach the same sialic acid levels as normally reared pups. The amount of 6'-SL given to the 6'-SL supplemented group was selected to follow the change in concentration of sialic acid in rat milk, ranging from 1.5 g/Kg body weight on day 3 to 0.5 g/Kg body weight at weaning. The maximum amount of sialic acid given to a pup was a maximum of 2 mg/Kg on day 8.
There were a total of 16 male pups in the NeuAc supplemented group at the end of lactation. The NeuAc supplemented group received NeuAc supplementation in order to reach the same sialic acid levels as normally reared pups. The amount of NeuAc given to the NeuAc supplemented group was selected to follow the change in concentration of sialic acid in rat milk, ranging from 1.5 g/Kg body weight on day 3 to 0.5 g/Kg body weight at weaning. The maximum amount of sialic acid given to any pup was 2 mg/Kg on day 8,
Long-term potentiation (LTP) measurements were performed in each of the three groups, i.e., the 6'-SL Supplemented Group, the NeuAc -Supplemented Group and the Control Group. The testing was done while the animals were alive and 11 months old, which is about age 40 in human years. Experiments were done in order to determine the functionality of hippocampus in vivo. […]
To evoke LTP, the following high frequency stimulation (HFS) protocol was used: each animal was subjected to five 200 Hz, 100 ms trains of pulses at a rate of l/s. […] After the HFS protocol, fEPSPs were recorded again for 30 minutes. […]
The HFS train is indicated by the downward arrow. […] The baseline was recorded at 15, 10, and 5 minutes before HFS.

rats [2] = test: Y-maze testing, Example 1 (Retention Trial and Memory Trial); format: in vivo, Sprague-Dawley rat; details: PND90
Method: In order to establish the role of free sialic acid in cognition, rat pups were supplemented with free N-Acetylneuraminic acid (Neu5Ac) from postnatal day 3 (PND3) and their learning and memory abilities were analyzed later in life. Rat performance in a classical spatial cognitive task (Y-maze) was evaluated once the animals […]. LTP response in hippocampus was also evaluated postnatal day 110 (PND110).
The pups from the second cohort were divided into two groups and given the following designations: the SIA-supplemented group and the Control group. Pups in the SIA - supplemented group were given milk containing low sialic acid, and received a supplementation of free sialic acid since the same day of transfer to the foster mothers until weaning. There were a total of 12 male pups in the SIA -supplemented group. The SIA -supplemented group received free sialic acid supplementation (8 doses/day) in order to reach the same free sialic acid levels as normally reared pups. The amount of free sialic acid given to the SIA-supplemented group was selected to follow the change in concentration of sialic acid in rat milk, ranging from 1.5 g/Kg body weight on day 3 to 0.5 g/Kg body weight at weaning. The amount of sialic acid given to any pup was a maximum of 1.8 mg/Kg body weight on day 8.
The Y-maze is a widely accepted method of testing spatial orientation and memory capabilities in rats. Ten rats in each group were evaluated in the Y-maze. At postnatal day 90 (PND90) for each group, the rats were subjected to a training trial (hereinafter, the "Training Trial"). The approximate equivalent in human years to 90 days of rat life is 10 to 20 years of age. At 5 minutes post training, rats in each group were tested again to test their retention (hereinafter, the "Retention Trial"). At 48 hours post training, rats in each group were tested again to test their memory, (hereinafter, the "Memory Trial").
During the Training Trial, one of the three arms of the Y-maze was blocked, and animals were allowed to explore the other two arms for 15 minutes. During the Retention Trial and the Memory Trial, all three arms were open and animals were allowed to explore for 5 minutes. The amount of time each animal spent at the start of the Y-maze and each arm was evaluated.
During the Memory Trial, performed 48 hours after the Training Trial, a long time spent at the start of the Y-maze denotes anxiety and neophobia. Conversely, the longer time an animal spent at the novel arm indicates an interest in novelty and apparent ability to recognize which arms they had visited previously.

rats [3] = test: Novel Object Recognition testing, Example 2; format: in vivo, Sprague-Dawley rat; details: 13 months old; retention test one day after acquisition phase; FIG. 5; listed as NeuAc
Method: Perirhinal cortex and hippocampus are involved in the novel object recognition task. Novel Object Recognition Testing was performed when the rats were 13 months old, which corresponds to 45-50 years old for humans. Eight animals were tested.
During a habituation phase of the test, the rats were allowed to explore an "arena" for 20 minutes per day for 3 consecutive days. The arena was a black, open plastic chamber. Next, an acquisition phase took place wherein the animals interfaced with two different objects. These object are defined as "familiar." The rats were allowed to the arena while the familiar objects were present for 10 minutes. One day after the acquisition phase, a retention test was performed on the rats, wherein one of the familiar objects was replaced by a new object. The new object is defined as "novel." The rats were allowed to explore the arena for 5 minutes during the retention test. In theory, animals that remember familiar objects will spend more time exploring the novel object than the familiar one.

[4] = Memory Trial 48 hours post training, read from FIG. 2

Structure (SMILES): CC(=O)N[C@H]1[C@H]([C@H](O)[C@H](O)CO)OC(O)(C(=O)O)C[C@@H]1O (stereo partly drawn) [SIA, N-Acetylneuraminic acid]
- persistence of LTP induction [1]: remaining
- time spent in the novel arm (rats [2]; [4]): about 65 seconds
- time spent in the start arm (rats [2]; [4]): about 40 seconds
- Y-maze performance, in words (rats [2]; compared with Reference Group / non-supplemented control animals, listed as free sialic acid): performed better and similarly to reference animals
- novel arm preference (percentage of animals that preferred the novel arm first) (rats [2]; Retention Trial 5 minutes post training, pups supplemented PND3 to weaning, read from FIG. 1): about 57%
- time spent exploring the novel object versus the familiar object (rats [3]): significantly more time visiting the novel object than the familiar one; also recorded: distinguish better between the familiar and novel object
